# Patent publication US10934355B2, “Methods and compositions for the prevention and treatment of surgical adhesions” (The Board of Trustees of the Leland Stanford Junior …, priority 2016, dated 2021)
# Entries after “also recorded” stand apart in the source; their conditions may differ.
# What was measured:
# Type in all cases: in vivo, mouse
# [1] = test system: adhesion formation in mice; test: Adhesion induction with neutrophil/monocyte modulating treatments, adhesion score (Example 2); conditions: for adhesion formation (adhesion score), pre-treatment: treated 24 hours prior to adhesion induction
# Source text: (§1) Adhesion induction surgeries were done on wild type B6 (C57BL/6J (The Jackson Laboratory) mice aged 6-10 weeks. Mice were anesthetized by inhaled isoflurane until determined unconscious confirmed by toe-pinch test. The abdomen was disinfected with betadine and phosphate buffered saline (PBS). A left mid-clavicular incision was made in the skin running down the length of the mouse. A similar left-mid clavicular incision was made in the peritoneum running down the length of the peritoneum. The peritoneum was gently folded to the right and held down by a hemostat. A single, ischemic button was placed on the right half of the peritoneal wall by clamping a small (−5 mm diameter) piece of peritoneum and ligating the base with a 4-0 silk suture (Ethicon, 683G). Light abrasion on the button (24 times) and on the adjacent liver, cecum, and small and large bowels (7 times) was optionally performed (depending on the desired adhesion severity) with a surgical brush. Light brushing with fewer repetitions was performed to avoid pinpoint bleeding. The peritoneum was closed using 4-0 silk sutures and the skin was stapled closed (EZ Clips, 9 mm, Braintree Scientific Inc). Mice were allowed to recover on a heating pad and injected with 0.05-0.1 mg/kg of buprenorphine. Mice were followed closely and monitored daily for signs of morbidity for 7 days until euthanasia. Adhesed tissues were dissected, scored, and fixed in 2% paraformaldehyde overnight at 4 degrees.
# Peritoneal washes from similar time points confirmed that increased numbers of neutrophils and macrophages enter the peritoneum.
# [2] = test system: adhesions in mice; test: Pre-treatment 3 days prior to adhesion induction surgery, adhesion severity scale 0-5 (Example 3); conditions: pre-treated 3 days prior to surgery, evaluated 7 days post injury, versus PBS control
# Source text: as §1, with “Light abrasion on the button (24 times) and on the adjacent liver, cecum, and small and large bowels (7 times) was optionally performed (depending on the desired adhesion severity) with a surgical brush. Light brushing with fewer repetitions was performed to avoid pinpoint bleeding. The peritoneum was closed using 4-0 silk sutures and the skin was stapled closed (EZ Clips, 9 mm, Braintree Scientific Inc). Mice were allowed to recover on a heating pad and injected with 0.05-0.1 mg/kg of buprenorphine.” left out
# Mice were pre-treated with either PLGA, thioglycollate, or PBS control 3 days prior to adhesion induction surgery as described in Example 1. Mice were evaluated 7 days post injury and evaluated on an adhesion severity scale from 0-5 for adhesions forming on the suture site (S) or the button (B). […]
# [3] = test system: adhesion formation in wild type C57BL/6J mice; test: Adhesion induction (ischemic button) with HIF1A small molecule inhibitor treatment, adhesion scoring; conditions: for adhesion formation: C57BL/6J mice, cryptotanshinone 200 mg/kg, FM19G11 2 mg/kg, echinomycin 10 or 20 ug/kg, PX12 25 mg/kg, immediately after injury, 4 hours after, then every 24 hours for 7 days, scored after 7 days; for adhesion score in a majority of the treated mice: scale 0-5, PX12 n=5, echinomycin n=15, 7 days after induction
# Source text: as §1
# In functional studies we assign a single score for an adhesion, based on the criteria detailed in the text above, taking into consideration both surface area contact and molecular makeup. […] We have observed adhesion areas with high surface area contact (a score of 3 or 4) with little or no collagen or macrophage involvement (F4/80-). Conversely, we have also observed adhesion areas with low surface area contact (a score of 2) with high collagen and macrophage infiltration. In these cases we will score adhesions based on surface area contact or number of organs involved, as we predict this is a more significant indicator of clinical outcome.
# Adhesion induction surgeries were performed on 4-8 week old wild type B6 (C57BL/6J (The Jackson Laboratory) as previously described. 200 mg/kg of cryptotanshinone (Sigma Aldrich), 2 mg/kg of FM19G11 (Sigma Aldrich), 10 ug/kg or 20 ug/kg of echinomycin (Sigma Aldrich), or 25 mg/kg of PX12 (Sigma Aldrich) immediately after injury, 4 hours after injury, and every 24 hours subsequently for 7 days.
# Adhesions were induced in wild type C57BL/6J mice using the method described above, with different intensity and scope of abrasions to induce a range of adhesion severity. These mice were allowed to recover for seven days before their adhesions were scored.
# In our scheme, an adhesion with a score of 0 has no adhesion between two areas, with limited mesothelial thickening on the button (FIG. 3A). The area stains positive for MSLN and fibronectin (FIG. 3A). Mice with an adhesion score of 0 had no signs of morbidity and survived the 7 day recovery period (n=25). An adhesion score of 1 indicated a “string” adhesion, connecting the two adhesed areas with a light fibrous bridge (FIG. 3B). The string and surrounding areas were immunopositive for MSLN and fibronectin (FIG. 3B). Most mice with an adhesion score of 1 had no signs of morbidity and survived the 7 day recovery period (n=11).
# All adhesions with scores of 2 or above involve a single direct contact between two tissues. […]
# [4] = test system: HIF1A; test: Immunofluorescence staining of mesothelium surrounding buttons after inhibitor treatment; conditions: 7 days after induction and treatment; control adhesions positive for PDPN, MSLN and HIF1A
# Method: Immunofluorescence studies were performed on frozen sections. Frozen sections were thawed at room temperature for ten minutes and washed in PBS twice. Slides were blocked in 5% serum for 30 minutes at room temperature. Sections were subsequently stained with primary antibodies against PDPN (1:100, mouse monoclonal, Abcam), MSLN (1:200, rabbit monoclonal, ABBIOTEC), fibronectin (1:100, rabbit monoclonal, Abcam), F4/80 (1:100, rat monoclonal, Abcam), CD31 (1:100, rabbit monoclonal, Abcam), pan-collagen (1:100, rabbit polyclonal, Abcam), WT1 (1:100, rabbit polyclonal, Abcam), CD44 (1:100, rabbit polyclonal, Abcam), HIF1A (1:100, mouse monoclonal), and S100A4 (1:100, rabbit polyclonal, Abcam), overnight at 4 degrees, and washed three times in PBS. Slides were stained were incubated with secondary antibodies conjugated to Alex Fluor 488, 594, or 647 for one to two hours at room temperature. Stains were washed once with PBST and three times with PBS before nuclear staining with Hoechst 33342 (Life Technologies), for two minutes and mounted with Fluoromount G (Southern Biotech).
# To explore whether inhibiting the HIF1A pathway in vivo can prevent adhesion formation, we treated mice that had undergone adhesion induction with small molecular inhibitors against HIF1A or its immediate downstream cascade. […] Mice were euthanized after 7 days and their adhesions were imaged and scored.
# [5] = test system: HIF1A and mesothelial target genes in injured mesothelial cells; test: RNA sequencing of sorted injured mesothelium after echinomycin treatment
# Method: A modified adhesion induction surgery was done according to previously described procedures on wild type C57BL/6J (The Jackson Laboratory). Two ischemic buttons were placed on each side of the peritoneum and no abrasion of the button or abdominal organs was done. Mice were allowed to recover for 6, 12, or 24 hours and euthanized. Ischemic buttons were dissected by cutting the base and placed in dissociation media (DMEM (Life Technologies, 10565-042), 50 mg/ml collagenase IV (Worthington Biochemical), 20 uM CaCl2). Buttons were homogenized using a single edge blade (Razor Blade Company), and incubated in dissociation media for 30 minutes at 37 C. The subsequent cell suspension was filtered through a 100 um filter and spun and washed with 2% fetal bovine serum (FBS) in PBS. Cells were treated with 1 ml of ACK lysis buffer (Life Technologies) for 5 minutes at 4 C and spun and washed. Cells were blocked with 1% goat serum (Life Technologies) for 10 minutes and stained with anti-PDPN (BioLegend, 8.1.1, 1:100), anti-LYVE-1 (eBioscience, ALY-7, 1:100), anti-CD31 (eBioscience, 390, 1:100), and anti-CD45 (BioLegend, 30-F11, 1:100) for 30 minutes at 4 C. Cells were spun down, filtered, and resuspended in 200 µl of 2% FBS in PBS. Cells were run through a FACSAria (BD Bioscences) and PDPN+LYVE1-CD31-CD45- cells were sorted directly into 750 ul of Trizol LS (Life Technologies).
# Total RNA from sorted mesothelial population was isolated using Trizol (ThermoFisher) as per manufacturer's recommendation and was facilitated by addition of linear polyacrylamide (Sigma) as a carrier during RNA precipitation. Purified total RNA was treated with 4 units of RQ1 RNase-free DNase (Promega) at 37° C. for 1 hour to remove trace amounts of genomic DNA. The DNase-treated total RNA was cleaned-up using RNeasy micro kit (QIAGEN). 10-50 ng of total RNA was used as input for cDNA preparation and amplification using Ovation RNA-Seq System V2 (NuGEN). Amplified cDNA was sheared using Covaris S2 (Covaris) using the following settings: total volume […], duty cycle 10%, intensity 5, cycle/burst 100, total time 2 min. The sheared cDNA was cleaned up using Agencourt Ampure XP (Beckman Coulter) to obtain cDNA fragments>=400 base pairs (bp). 500 ng of sheared and size-selected cDNA were used as input for library preparation using NEBNext Ultra DNA Library Prep Kit for Illumina (New England BioLabs) as per manufacturer's recommendations. Resulting libraries (fragment distribution: 300-700 bp; peak 500-550 bp) were sequenced using HiSeq 4000 (Illumina) to obtain 2×150 base pair paired-end reads. The reads obtained were trimmed for base call quality and the presence of adapter sequences using Skewer (ref). High quality reads thus obtained were aligned to mouse genome using OLego (ref) and the levels of expressed mRNAs were estimated using cuffdiff2 (ref) and represented as fragments per kilo-base per million mapped reads (FPKM).
# To broadly determine the causative transcriptional changes in injured mesothelial cells downstream of HIF1A inhibition, we treated 10 wild type C57BL/6J mice with (20 ug/kg) of echinomycin prior to and immediately following adhesion induction via placement of four ischemic buttons. Using a similar method as outlined above, we isolated the damaged mesothelium from buttons, sorted and isolated their RNA for sequencing.
molecule,measurement,setting,value
thioglycollate,"adhesion formation (adhesion score), pre-treatment",[1],diminished adhesions
same,severity of adhesions at the button (B),[2],significantly reduced severity of adhesions
same,severity of adhesions at the suture site (S),[2],significantly reduced severity of adhesions
CCC(C)SSc1ncc[nH]1 (stereo not shown) [PX12],adhesion formation,[3],significantly reduced; also recorded: dramatic decrease in adhesion formation and frequency; also recorded: significant decreases in adhesion formation; also recorded: reduce adhesion formation
same,adhesion score in a majority of the treated mice,[3],0
same,HIF1A immunofluorescence staining of mesothelium surrounding the buttons / adhesions,[4],stained with only MSLN and PDPN
CS[C@H]1SC[C@H]2C(=O)N(C)[C@@H](C(C)C)C(=O)OC[C@@H](NC(=O)c3cnc4ccccc4n3)C(=O)N[C@@H](C)C(=O)N(C)[C@@H]1C(=O)N(C)[C@@H](C(C)C)C(=O)OC[C@@H](NC(=O)c1cnc3ccccc3n1)C(=O)N[C@@H](C)C(=O)N2C [echinomycin],adhesion formation,[3],significantly reduced; also recorded: dramatic decrease in adhesion formation and frequency; also recorded: significant decreases in adhesion formation; also recorded: significantly reduces the formation of adhesions
same,adhesion score in a majority of the treated mice,[3],0
same,"ITGAM, ITGB1, and ITGB2 gene expression after HIF1A inhibition",[5]; 20 ug/kg echinomycin,little difference in gene expression
same,"PDPN, MSLN, and S100A4 expression after treatment",[5]; 20 ug/kg echinomycin,increased in expression
same,UPK1B and WT1 expression levels after treatment,[5]; 20 ug/kg echinomycin,dropped significantly
same,number of genes normally upregulated along the 24 hour time course that were decreased with HIF1A inhibition,[5]; 20 ug/kg echinomycin,over 200 genes
same,number of genes with little or decreased expression during the 24 hour time course that were upregulated by HIF1A inhibition,[5]; 20 ug/kg echinomycin,over 600 genes
same,expression of known HIF1A targets VEGFb and transferrin (TRF),[5]; 20 ug/kg echinomycin prior to and immediately following adhesion induction,downregulated
same,HIF1A immunofluorescence staining of mesothelium surrounding the buttons / adhesions,[4],stained with only MSLN and PDPN
Cc1ccc(C(=O)COC(=O)c2cccc(NC(=O)c3ccc([N+](=O)[O-])cc3[N+](=O)[O-])c2)cc1 [FM19G11],adhesion formation,[3],reduce adhesion formation
"MCP-1: monocyte chemoattractant protein-1, a known monocyte chemoattractant",side effects in animals,"[1]; MCP-1 administration (e.g., intraperitoneally) in animal models",little or no side effects
same,"adhesion formation (adhesion score), post-surgery treatment",[1]; treated for three days following adhesion induction surgery,diminish adhesion formation; also recorded: substantial reduction in adhesion grades
Catalase,"adhesion formation (adhesion score), pre-treatment",[1],worsens adhesion formation
